Assay results taken from US12180187B2, “1-phenyl-5-azinylpyrazolyl-3-oxyalkyl acids and their use for controlling unwanted plant growth” (BAYER AKTIENGESELLSCHAFT, priority 2019, dated 2024).

Legend:
PHBPU [1] = test: Pre-emergence action at 320 g/ha against PHBPU; type: in vivo; settings: visual scoring after about 3 weeks vs untreated controls
In short: (§1)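 Visual % scoring at about 3 weeks post-treatment against untreated pots (0% = like control, 100% = dead), greenhouse-grown. Compounds applied at 320 g/ha as aqueous WP/EC suspension or emulsion plus 0.5% additive, 600 l/ha water, onto covering soil of freshly sown pots before emergence.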

VIOTR [2] = test: Post-emergence action at 320 g/ha against VIOTR; type: in vivo, Viola tricolor; settings: visual rating about 3 weeks after treatment vs untreated controls
In short: (§2)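 Greenhouse pot plants in sandy loam received a foliar spray of WP- or EC-formulated compound at the one-leaf stage. Percent activity against untreated controls was assessed visually around three weeks later.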

STEME = test: Pre-emergence action at 320 g/ha against STEME; type: in vivo, Stellaria media; settings: greenhouse, scored visually after about 3 weeks vs untreated controls, 100% = plants have died, 0% = like control plants
Text: (§3) b) Seeds of monocotyledonous and dicotyledonous weed plants and crop plants are placed in plastic or organic planting pots and covered with soil. The compounds of the invention, formulated in the form of wettable powders (WP) or as emulsion concentrates (EC), are then applied onto the surface of the covering soil as aqueous suspension or emulsion with addition of 0.5% additive at a water application rate of 600 l/ha (converted). After the treatment, the pots are placed in a greenhouse and kept under good growth conditions for the trial plants. After about 3 weeks, the effect of the preparations is scored visually in comparison with untreated controls as percentages. For example, 100% activity=the plants have died, 0% activity=like control plants. Tables 13 to 26 below show the effects of selected compounds of the general formula (I) on various harmful plants and at an application rate corresponding to 320 g/ha, which were obtained by the experimental procedure mentioned above.

DIGSA [3] = test: Post-emergence action at 320 g/ha against DIGSA; type: in vivo, Digitaria sanguinalis; settings: dosage 320 g/ha, visual rating about 3 weeks after treatment vs untreated controls (100% = plants died)
In short: as §2

POLCO [4] = test: Pre-emergence action at 320 g/ha against POLCO; type: in vivo, Fallopia convolvulus (Polygonum convolvulus); settings: visual scoring after about 3 weeks vs untreated controls
In short: as §1

PHBPU [5] = test: Post-emergence action at 320 g/ha against PHBPU; type: in vivo; settings: visual rating about 3 weeks after treatment vs untreated controls
Text: (§4) Accordingly, the compounds of the invention have good herbicidal action against a broad spectrum of weed grasses and broad-leaved weeds and are therefore suitable for controlling unwanted vegetation by the post-emergence method. • b) Seeds of monocotyledonous and dicotyledonous weeds and crop plants are placed in sandy loam in plastic or organic planting pots, covered with soil and cultivated in a greenhouse under controlled growth conditions. 2 to 3 weeks after sowing, the test plants are treated at the one-leaf stage. The compounds of the invention, formulated in the form of wettable powders (WP) or as emulsion concentrates (EC), are then sprayed onto the green parts of the plants as aqueous suspension or emulsion with addition of 0.5% additive at a water application rate of 600 l/ha (converted). After the test plants have been kept in the greenhouse under optimum growth conditions for about 3 weeks, the activity of the preparations is rated visually in comparison to untreated controls. For example, 100% activity=the plants have died, 0% activity=like control plants. Tables 39 to 49 below show the effects of selected compounds of the general formula (I) according to Tables 1 and 2 on various harmful plants and at an application rate corresponding to 320 g/ha, which were obtained by the experimental procedure mentioned above.

ECHCG = test: Post-emergence action at 320 g/ha against ECHCG; type: in vivo, Echinochloa crus-galli; settings: dosage 320 g/ha, visual rating about 3 weeks after treatment vs untreated controls (100% = plants died)
In short: as §2

MATIN = test: Pre-emergence action at 320 g/ha against MATIN; type: in vivo, Tripleurospermum inodorum (Matricaria inodora); settings: visual scoring after about 3 weeks vs untreated controls
In short: as §1

ECHGC = test: Pre-emergence action at 320 g/ha against ECHGC; type: in vivo, Echinochloa crus-galli; settings: visual scoring after about 3 weeks vs untreated controls
In short: as §1

SETVI [6] = test: Post-emergence action at 320 g/ha against SETVI; type: in vivo, Setaria viridis; settings: visual rating about 3 weeks after treatment vs untreated controls
In short: as §2

LOLRI = test: Pre-emergence action at 320 g/ha against LOLRI; type: in vivo, Lolium rigidum; settings: visual scoring after about 3 weeks vs untreated controls
In short: as §1

ALOMY [7] = test: Post-emergence action against ALOMY, 320 g/ha; type: in vivo, Alopecurus myosuroides; settings: dosage 320 g/ha, visual rating about 3 weeks after treatment vs untreated controls (100% = plants died)
In short: as §2

VERPE = test: Pre-emergence action at 320 g/ha against VERPE; type: in vivo, Veronica persica; settings: visual scoring after about 3 weeks vs untreated controls
In short: as §1

POLCO [8] = test: Post-emergence action at 320 g/ha against POLCO; type: in vivo, Fallopia convolvulus (Polygonum convolvulus); settings: visual rating about 3 weeks after treatment vs untreated controls
In short: as §2

AVEFA [9] = test: Post-emergence action at 320 g/ha against AVEFA; type: in vivo; settings: visual rating about 3 weeks after treatment vs untreated controls
In short: as §2

ALOMY [10] = test: Pre-emergence action at 320 g/ha against ALOMY; type: in vivo, Alopecurus myosuroides; settings: scored visually after about 3 weeks vs untreated controls (100% = plants have died)
In short: as §1

SETVI [11] = test: Pre-emergence action at 320 g/ha against SETVI; type: in vivo, Setaria viridis; settings: visual scoring after about 3 weeks vs untreated controls
In short: as §1

AMARE = test: Pre-emergence action at 320 g/ha against AMARE; type: in vivo, Amaranthus retroflexus; settings: visual scoring after about 3 weeks vs untreated controls
In short: as §1

DIGSA [12] = test: Pre-emergence action at 320 g/ha against DIGSA; type: in vivo, Digitaria sanguinalis; settings: visual scoring after about 3 weeks vs untreated controls
In short: as §1

HORMU [13] = test: Post-emergence action at 320 g/ha against HORMU; type: in vivo, Hordeum murinum; settings: visual rating about 3 weeks after treatment vs untreated controls
Text: as §4

HORMU [14] = test: Pre-emergence action at 320 g/ha against HORMU; type: in vivo, Hordeum murinum; settings: greenhouse, scored visually after about 3 weeks vs untreated controls, 100% = plants have died, 0% = like control plants
Text: as §3

AVEFA [15] = test: Pre-emergence action at 320 g/ha against AVEFA; type: in vivo; settings: visual scoring after about 3 weeks vs untreated controls
In short: as §1

VIOTR [16] = test: Pre-emergence action at 320 g/ha against VIOTR; type: in vivo, Viola tricolor; settings: dosage 320 g/ha
In short: as §1

ABUTH = test: Post-emergence action at 320 g/ha against ABUTH; type: in vivo, Abutilon theophrasti; settings: visual rating about 3 weeks after treatment vs untreated controls
Text: as §4

In the case of CC(C)OC(=O)COc1nn(-c2ccccc2F)c(-c2ccc(F)nc2)c1Br [VII-005], the “Pre-emergence action against PHBPU in %” value (PHBPU [1]) is reported as 80%, the “Post-emergence action against VIOTR in %” value (VIOTR [2]) is reported as 100% and the “Pre-emergence action at 320 g/ha against STEME in %” value (STEME) is reported as 90%. The “Post-emergence action at 320 g/ha against DIGSA in %” value (DIGSA [3]) was 90%, the “Pre-emergence action against POLCO in %” value (POLCO [4]) was 100% and the “Post-emergence action against PHBPU in %” value (PHBPU [5]) was 90%. For the same compound, the “Post-emergence action at 320 g/ha against ECHCG in %” value (ECHCG) was 90%, the “Pre-emergence action against MATIN in %” value (MATIN) was 100% and the “Pre-emergence action against ECHGC in %” value (ECHGC) was 100%. For the same compound, the “Post-emergence action against SETVI in %” value (SETVI [6]) was 80%, the “Pre-emergence action against LOLRI in %” value (LOLRI) was 100% and the “Post-emergence action against ALOMY” value (ALOMY [7]) was 100%. For the same compound, the “Pre-emergence action against VERPE in %” value (VERPE) was 100%, the “Post-emergence action against POLCO in %” value (POLCO [8]) was 80% and the “Post-emergence action against AVEFA in %” value (AVEFA [9]) was 100%. For the same compound, the “Pre-emergence action at 320 g/ha against ALOMY in %” value (ALOMY [10]) was 100%, the “Pre-emergence action against SETVI in %” value (SETVI [11]) was 100% and the “Pre-emergence action against AMARE in %” value (AMARE) was 100%. For the same compound, the “Pre-emergence action against DIGSA in %” value (DIGSA [12]) was 100%, the “Post-emergence action against HORMU in %” value (HORMU [13]) was 90% and the “Pre-emergence action at 320 g/ha against HORMU in %” value (HORMU [14]) was 100%. For the same compound, the “Pre-emergence action against AVEFA in %” value (AVEFA [15]) was 90%, the “Pre-emergence action against VIOTR in %” value (VIOTR [16]) was 100% and the “Post-emergence action against ABUTH in %” value (ABUTH) was 80%.
